Experimental data: ChEMBL document CHEMBL1201862, “PubChem BioAssay data set” (2004)
Activity calls are given as the source filed them.

What was measured:
INS1 = test: beta cell apoptosis inhibitors, cytokine rescue, dose response, luminescence, retest (AID 449756); assay type: functional, cell-based; conditions: Rattus norvegicus;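 further: cell death triggered by IL-1 beta plus TNF-alpha plus IFN-gamma mixture; protective hits raise ATP signal compared with cytokine alone wells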
Vero = test: host cell cytotoxicity of antiviral hits, dose response, cytotoxicity control for West Nile virus antiviral project, secondary assay (AID 1650); assay type: functional; conditions: Chlorocebus sabaeus
Procathepsin L = Procathepsin L (Homo sapiens, UniProt P07711)
Procathepsin L, sequence (P07711 whole entry): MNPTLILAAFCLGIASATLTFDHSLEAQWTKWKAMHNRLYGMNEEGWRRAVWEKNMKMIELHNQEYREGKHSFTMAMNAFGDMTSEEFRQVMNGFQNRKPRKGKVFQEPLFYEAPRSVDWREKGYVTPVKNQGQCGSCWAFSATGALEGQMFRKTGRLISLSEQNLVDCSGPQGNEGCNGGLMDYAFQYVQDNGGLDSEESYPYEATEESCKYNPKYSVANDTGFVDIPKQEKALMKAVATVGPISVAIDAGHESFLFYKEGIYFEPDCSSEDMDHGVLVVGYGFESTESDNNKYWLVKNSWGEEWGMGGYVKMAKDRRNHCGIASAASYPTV

Estrogen receptor beta [1] = target: T1, Estrogen receptor beta (Homo sapiens, UniProt Q92731); test: ERβ–SRC-3 coactivator interaction inhibitors, confirmation, orthogonal assay, biochemical, ELISA, streptavidin-HRP readout (AID 1060)
T1 sequence (Q92731 whole entry): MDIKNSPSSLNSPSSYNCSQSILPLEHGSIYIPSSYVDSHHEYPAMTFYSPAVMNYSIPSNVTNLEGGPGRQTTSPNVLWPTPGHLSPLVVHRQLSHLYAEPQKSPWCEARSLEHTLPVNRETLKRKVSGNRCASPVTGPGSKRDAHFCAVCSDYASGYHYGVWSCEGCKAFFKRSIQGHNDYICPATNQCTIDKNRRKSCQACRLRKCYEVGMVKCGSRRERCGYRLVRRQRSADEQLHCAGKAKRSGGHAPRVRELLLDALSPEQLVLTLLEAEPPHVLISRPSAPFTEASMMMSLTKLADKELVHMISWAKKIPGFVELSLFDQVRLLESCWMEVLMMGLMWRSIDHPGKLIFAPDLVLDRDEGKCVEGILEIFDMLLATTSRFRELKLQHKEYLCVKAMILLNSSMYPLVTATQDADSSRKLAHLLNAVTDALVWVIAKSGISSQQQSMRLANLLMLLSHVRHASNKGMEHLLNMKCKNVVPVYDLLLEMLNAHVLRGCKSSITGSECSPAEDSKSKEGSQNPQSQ

Leucine aminopeptidase = target: T2, Leucine aminopeptidase (Plasmodium falciparum 3D7, UniProt Q8IL11); test: P. falciparum M17LAP inhibitors, primary screen, biochemical, fluorogenic H-Leu-NHMec substrate, 1536-well (AID 1619); assay type: functional
T2 sequence (Q8IL11 whole entry): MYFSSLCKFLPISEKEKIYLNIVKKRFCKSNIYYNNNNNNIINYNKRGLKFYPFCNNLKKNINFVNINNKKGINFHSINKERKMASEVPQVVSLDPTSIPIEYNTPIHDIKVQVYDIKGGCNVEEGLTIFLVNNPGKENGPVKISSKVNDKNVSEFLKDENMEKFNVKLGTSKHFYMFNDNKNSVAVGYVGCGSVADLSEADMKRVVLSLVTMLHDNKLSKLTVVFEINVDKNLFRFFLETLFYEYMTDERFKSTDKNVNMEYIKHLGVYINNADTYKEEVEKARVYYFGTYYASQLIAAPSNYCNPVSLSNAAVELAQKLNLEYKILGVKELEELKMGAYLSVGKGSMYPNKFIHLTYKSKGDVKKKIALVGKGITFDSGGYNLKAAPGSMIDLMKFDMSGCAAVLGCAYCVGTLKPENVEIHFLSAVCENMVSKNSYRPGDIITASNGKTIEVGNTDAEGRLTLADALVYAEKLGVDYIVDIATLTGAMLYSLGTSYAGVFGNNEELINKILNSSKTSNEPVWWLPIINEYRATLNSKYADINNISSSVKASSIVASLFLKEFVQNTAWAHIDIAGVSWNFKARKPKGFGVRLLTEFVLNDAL

Aspartyl aminopeptidase = Aspartyl aminopeptidase (Plasmodium falciparum 3D7, UniProt Q8I2J3)
Aspartyl aminopeptidase, sequence (Q8I2J3 whole entry): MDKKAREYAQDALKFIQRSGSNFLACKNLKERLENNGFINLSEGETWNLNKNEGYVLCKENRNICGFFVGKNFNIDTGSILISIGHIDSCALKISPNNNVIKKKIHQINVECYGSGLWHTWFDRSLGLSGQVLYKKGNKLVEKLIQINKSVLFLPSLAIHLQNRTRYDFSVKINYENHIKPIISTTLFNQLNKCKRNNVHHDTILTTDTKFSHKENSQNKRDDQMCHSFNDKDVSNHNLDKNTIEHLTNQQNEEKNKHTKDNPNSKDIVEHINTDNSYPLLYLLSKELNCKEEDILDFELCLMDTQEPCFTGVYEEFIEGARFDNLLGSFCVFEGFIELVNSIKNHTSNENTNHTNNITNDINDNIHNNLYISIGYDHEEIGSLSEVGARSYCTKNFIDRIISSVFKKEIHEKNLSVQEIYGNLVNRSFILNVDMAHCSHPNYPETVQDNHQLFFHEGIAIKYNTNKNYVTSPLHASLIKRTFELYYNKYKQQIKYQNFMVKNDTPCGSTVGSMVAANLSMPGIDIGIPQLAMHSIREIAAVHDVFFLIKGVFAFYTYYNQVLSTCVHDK

Bcl-2-like protein 10 = target: T3, Bcl-2-like protein 10 (Homo sapiens, UniProt Q9HD36); test: displacers of TR3 peptide from Bcl-B, primary screen, selectivity assay for Bfl-1 inhibitor project, biochemical, fluorescence polarization, FITC-TR3 peptide (AID 748);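 further: fluorescence polarization from a fluorescein-labelled TR3 peptide binding purified Bcl-B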
T3 sequence (Q9HD36 whole entry): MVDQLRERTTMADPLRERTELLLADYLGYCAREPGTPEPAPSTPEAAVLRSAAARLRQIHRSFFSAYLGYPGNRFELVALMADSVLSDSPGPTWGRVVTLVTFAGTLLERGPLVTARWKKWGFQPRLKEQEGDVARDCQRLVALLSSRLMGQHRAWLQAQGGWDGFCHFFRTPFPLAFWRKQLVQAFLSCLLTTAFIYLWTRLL

Large T antigen = Large T antigen (Simian virus 40, UniProt P03070); assay type: functional, Betapolyomavirus macacae;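 further: Confirmatory-stage PubChem screen for compounds that inhibit SV40 T antigen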
Large T antigen, sequence (P03070 whole entry): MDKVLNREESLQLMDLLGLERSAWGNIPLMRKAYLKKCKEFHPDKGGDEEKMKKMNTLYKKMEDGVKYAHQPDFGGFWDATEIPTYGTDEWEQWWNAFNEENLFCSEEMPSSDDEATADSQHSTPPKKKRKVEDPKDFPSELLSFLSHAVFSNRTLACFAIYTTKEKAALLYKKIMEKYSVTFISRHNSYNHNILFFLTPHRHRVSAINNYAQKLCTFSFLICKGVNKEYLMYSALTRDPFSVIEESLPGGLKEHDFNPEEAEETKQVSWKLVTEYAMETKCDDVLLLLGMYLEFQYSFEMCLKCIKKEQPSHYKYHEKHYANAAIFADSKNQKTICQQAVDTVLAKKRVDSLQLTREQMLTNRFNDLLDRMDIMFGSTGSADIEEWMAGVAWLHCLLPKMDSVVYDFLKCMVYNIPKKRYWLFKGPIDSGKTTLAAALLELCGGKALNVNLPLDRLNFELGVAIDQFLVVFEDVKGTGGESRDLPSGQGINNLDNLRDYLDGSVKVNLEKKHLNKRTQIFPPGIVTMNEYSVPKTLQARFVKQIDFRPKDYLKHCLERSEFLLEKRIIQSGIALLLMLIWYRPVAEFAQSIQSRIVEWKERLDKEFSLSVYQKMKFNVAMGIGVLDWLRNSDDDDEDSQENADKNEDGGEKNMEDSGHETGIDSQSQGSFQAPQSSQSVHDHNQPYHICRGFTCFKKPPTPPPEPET

Estrogen receptor beta [2] = target: T1, Estrogen receptor beta
[3] = target: Sphingosine 1-phosphate receptor 2 (Homo sapiens, UniProt O95136); test: Dose Response Cell Based Assay for Agonists of the S1P2 Receptor of Purchased Analogues. [Related pubchem assays: 729, 843, 854, 736 ]; assay type: functional
Sphingosine 1-phosphate receptor 2, sequence (O95136 whole entry): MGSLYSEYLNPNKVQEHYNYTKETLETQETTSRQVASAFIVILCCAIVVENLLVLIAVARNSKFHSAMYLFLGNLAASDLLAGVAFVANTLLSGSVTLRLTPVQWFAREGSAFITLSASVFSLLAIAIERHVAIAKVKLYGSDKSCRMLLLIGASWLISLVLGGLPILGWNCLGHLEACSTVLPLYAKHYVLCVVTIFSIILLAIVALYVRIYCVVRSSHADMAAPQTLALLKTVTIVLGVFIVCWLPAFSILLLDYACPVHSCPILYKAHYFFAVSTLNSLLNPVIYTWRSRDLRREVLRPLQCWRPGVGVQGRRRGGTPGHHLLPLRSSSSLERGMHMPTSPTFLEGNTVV

[4] = target: Aryl hydrocarbon receptor (Homo sapiens, UniProt P35869); test: Luminescence-based cell-based high throughput dose response assay for activators of the Aryl Hydrocarbon Receptor (AHR). [Related pubchem assays: 2796 (Primary screen (AHR activators in singlicate)), 2845 (Confirmation screen (AHR activators in triplicate)), 434939 (Counterscreen (PXR activators in triplicate)), 2804 (Summary (AHR activators))]; assay type: ADME
Aryl hydrocarbon receptor, sequence (P35869 whole entry): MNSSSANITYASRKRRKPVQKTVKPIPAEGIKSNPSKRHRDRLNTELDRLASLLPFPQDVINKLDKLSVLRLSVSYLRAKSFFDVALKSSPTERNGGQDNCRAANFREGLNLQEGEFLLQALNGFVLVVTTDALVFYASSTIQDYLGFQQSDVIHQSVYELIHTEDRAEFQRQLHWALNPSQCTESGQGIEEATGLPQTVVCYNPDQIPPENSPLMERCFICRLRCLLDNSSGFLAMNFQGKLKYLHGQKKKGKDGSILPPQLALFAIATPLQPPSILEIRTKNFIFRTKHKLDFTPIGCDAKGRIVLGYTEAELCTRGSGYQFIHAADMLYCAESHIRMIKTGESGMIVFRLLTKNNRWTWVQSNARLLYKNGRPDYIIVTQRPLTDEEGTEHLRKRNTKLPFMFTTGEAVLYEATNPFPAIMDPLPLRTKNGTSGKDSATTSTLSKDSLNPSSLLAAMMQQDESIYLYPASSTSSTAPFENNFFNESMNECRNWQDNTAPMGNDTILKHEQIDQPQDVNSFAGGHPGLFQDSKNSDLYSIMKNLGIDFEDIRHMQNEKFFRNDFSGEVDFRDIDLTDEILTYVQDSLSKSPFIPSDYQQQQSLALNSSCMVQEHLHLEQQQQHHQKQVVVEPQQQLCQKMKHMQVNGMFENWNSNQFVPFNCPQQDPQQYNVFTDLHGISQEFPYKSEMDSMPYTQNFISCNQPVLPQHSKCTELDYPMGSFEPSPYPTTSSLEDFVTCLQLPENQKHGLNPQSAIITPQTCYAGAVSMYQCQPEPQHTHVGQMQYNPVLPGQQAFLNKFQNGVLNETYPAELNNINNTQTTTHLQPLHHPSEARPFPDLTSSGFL

Protein Rev = Protein Rev (Human immunodeficiency virus type 1 group M subtype B (isolate WMJ22)(HIV-1), UniProt P05866); test: HIV-1 Rev-RRE RNA binding disruptors, dose response, biochemical, protein-RNA interaction (AID 842); parameters: species or system Human immunodeficiency virus 1
Protein Rev, sequence (P05866 whole entry): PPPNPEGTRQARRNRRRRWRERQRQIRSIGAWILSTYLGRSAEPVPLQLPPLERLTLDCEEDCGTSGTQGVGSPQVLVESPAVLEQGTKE

[5] = Vero cell cytotoxicity, dose response, cytotoxicity control for Vif-APOBEC3G degradation inhibitor project, Vero cells (AID 1117358); assay type: functional; conditions: Human immunodeficiency virus 1, Vero
[6] = system: Streptococcus sp. 'group A'; test: growth inhibition of control SK(-) GAS strain, dose response, counter-screen for streptokinase expression inhibitor project, luminescence, kanamycin, BacTiterGlo, confirmation (AID 1900); assay type: functional, organism-based
Streptococcus [7] = test: Luminescence Microorganism-Based Dose Response Follow up to Identify Compounds Cytotoxic to Streptococcus. [Related pubchem assays: 1677 (Project Summary), 1915, 1914, 1902 (Retest at Dose), 1900 (Counter Screen), 1662 (Primary HTS)]; assay type: functional, organism-based
Streptococcus [8] = test: Group A Streptococcus viability loss, dose response, counter-screen for streptokinase expression inhibitor project, luminescence, BacTiterGlo (AID 1915); assay type: functional, organism-based;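 further: potency for reduction of bacterial viability or growth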
Streptokinase A = target: T4, Streptokinase A (Streptococcus pyogenes serotype M1, UniProt P10520); test: S. pyogenes streptokinase expression inhibitors, potency, dose response, plasminogen activation absorbance, OD405 (AID 1914); assay type: functional, Streptococcus pyogenes M1 GAS;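 further: secreted streptokinase activity via plasminogen activation per viability signal from cell pellet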
T4 sequence (P10520 whole entry): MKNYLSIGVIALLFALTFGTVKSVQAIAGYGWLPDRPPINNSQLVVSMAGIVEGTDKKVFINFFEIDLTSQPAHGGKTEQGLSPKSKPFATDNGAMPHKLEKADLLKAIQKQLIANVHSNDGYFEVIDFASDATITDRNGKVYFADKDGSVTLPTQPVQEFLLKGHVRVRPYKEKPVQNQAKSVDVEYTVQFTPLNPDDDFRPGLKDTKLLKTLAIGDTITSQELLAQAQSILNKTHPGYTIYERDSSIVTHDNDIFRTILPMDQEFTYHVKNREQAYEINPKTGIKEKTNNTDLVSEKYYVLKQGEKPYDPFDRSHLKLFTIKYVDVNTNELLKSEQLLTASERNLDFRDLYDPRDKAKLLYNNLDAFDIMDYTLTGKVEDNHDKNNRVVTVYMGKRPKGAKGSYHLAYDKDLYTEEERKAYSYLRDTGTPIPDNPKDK

**Q.** For `CC1=NN(c2nc(-c3ccc(C)cc3)cs2)C(=O)C1N=Nc1ccc(C(N)=O)cc1` (configuration not stated), which AC50 (INS1) is on record?
**A.** 2.53 µM (active)

**Q.** And the CC50 (Vero)?
**A.** 6.04 µM (active)

**Q.** Which IC50 (Procathepsin L) does the source give for `O=C(CSc1nc(O)c2ccccc2n1)c1ccc(O)c(O)c1` here?
**A.** > 59.6 µM (not active)

**Q.** What about the IC50 (Estrogen receptor beta [1]) of the same molecule?
**A.** 0.337 µM (not active)

**Q.** And the IC50 (Leucine aminopeptidase)?
**A.** 13 µM (active)

**Q.** What about the IC50 (Aspartyl aminopeptidase) of the same molecule?
**A.** 1.46 µM (active)

**Q.** And the IC50 (Bcl-2-like protein 10)?
**A.** 23.4 µM (active)

**Q.** And the IC50 (Large T antigen)?
**A.** 10.7 µM (active)

**Q.** What about the IC50 (Estrogen receptor beta [2]) of the same molecule?
**A.** 4.62 µM (active)

**Q.** For `Cc1cc(C(=O)CN(C)CC(=O)N2CCCC2)c(C)n1Cc1ccccc1`, which EC50 [3] is on record?
**A.** > 30 µM (not active)

**Q.** Which EC50 [4] does the source give for `O=C(Nc1cccc(-c2nc3cc(Cl)ccc3o2)c1)C1CCCO1` (configuration not stated) here?
**A.** 2.58 µM (active)

**Q.** Which IC50 (Protein Rev) does the source give for `CCN(CC)CCNC1=NCCn2c1cc1cc(OC)ccc12` here?
**A.** > 79.4 µM (not active)

**Q.** What about the CC50 [5] of the same molecule?
**A.** > 40 µM (active)

**Q.** With `Cn1c(=O)c2c(nc(SCc3ccccc3)n2Cc2ccc(Cl)cc2)n(C)c1=O` as the molecule, how does the EC50 [6] read?
**A.** 7.96 µM (active)

**Q.** And the EC50 (Streptococcus [7])?
**A.** > 500 µM (not active)

**Q.** What about the EC50 (Streptococcus [8]) of the same molecule?
**A.** > 150 µM (not active)

**Q.** What about the EC50 (Streptokinase A) of the same molecule?
**A.** 10.7 µM (active)
